Each structure is given as a SMILES string. Like-named read-outs stand apart in the source and are kept apart here. Where only a bound is given, the exact number is not on record here.

The subject of experiment [1] is S. aureus RN450. The experiment in a line: In Vitro Anti-Bacterial Activity Assay (MIC), gram positive. In kind it is cell-based. As to conditions: Staphylococcus aureus, RN450, 18 h.
The subject of experiment [2] is E. coli mL308 225. As to the kind of experiment: In Vitro Anti-Bacterial Activity Assay (MIC), gram negative. It is filed as cell-based. As to conditions: Escherichia coli, ML308225, 18 h.
In experiment [3] the test system is cultured murine cortical neurons. The experiment in a line: Protection of Cultured Cortical Neurons from Excitotoxic Injury Induced by NMDA (NE Assay). In kind it is cell-based, mice. As to conditions: NMDA 62.5 μM, LDH release 24 hours after starting the exposure. The protocol:
Primary cortical astrocyte cultures were prepared from one-day old mice, as described in the literature procedure (Tikka, T M et al. J Immunol. 2001 Jun. 15; 166(12):7527-33). After decapitation, the forebrain cortices were collected, cleaned from meninges and, after mincing, dissociated by incubation in papain/Dnase solution followed by trituration. The dissociated cells were suspended in a culture medium consisting of Eagle's minimal essential medium (MEM) with 10% heat-inactivated fetal bovine serum and glutamine (2 mM) and plated in 75 cm^2 cell culture flasks. The medium was replaced with fresh culture medium at day 7. At confluence (day 12-15), the astrocytes were trypsinized and re-plated into 24-well culture vessels. On day 7-8, the neurons were cultured on top of these confluent astrocyte monolayers.
Cortical neuron suspensions were prepared from embryonic day 17 mice. The cortices were collected and meninges removed. The tissue was minced into small pieces and incubated in trypsin solution. The tissue was suspended using a pipette and after centrifugation resuspended and plated on top of astrocyte cultures at a density of 250,000 cells/well to 24-well culture vessel in Eagle's minimal essential medium (MEM, Earle's salts) supplemented with 20 mM glucose, 2 mM glutamine, 10% fetal bovine serum, and 10% heat-inactivated horse serum (HS). Medium was changed after 5 days to MEM containing 20 mM glucose, 2 mM glutamine, and 10% HS, as well as cytosine arabinoside (final concentration 10 μM) to inhibit cell division, and incubated for 2 days. Subsequently, cultures were fed twice weekly with MEM supplemented with 20 mM glucose, 2 mM glutamine and 10% HS, and used at day 12-15.
On the day of experiment, the culture medium was replaced with 1) MEM, 2) MEM containing the test tetracycline compounds. Positive control drug included 10 μM MK-801 (Sigma). […] As a control for total neuronal death, a 24 hour incubation with 500 μM NMDA was used (100% cell death control).
The cell viability was assessed by measuring lactate dehydrogenase (LDH) release 24 hours after starting the exposure. The LDH release to the culture medium was measured from cell-free medium using Sigma LDH reagent employing kinetic measurement of conversion of lactate to pyruvate using NADH as a cofactor. The rate of increase in absorbance at 340 nm was directly proportional to the activity of LDH in the sample, and was measured with a Labsystems Multiskan ELISA reader.

Experiment [4] concerns nitric oxide synthesis in the J774 cell line. The experiment in a line: Lipopolysaccharide Stimulation of Macrophage Assay (LSM Assay), inhibition of nitric oxide. In kind it is cell-based. The settings on record: for Nitrite: inhibition of nitric oxide synthesis, LPS (100 ng/ml) stimulated J774 cells, nitrite by Greiss Reaction, test compound 56 μg/ml; for Nitrite (inhibition of nitric oxide synthesis): LPS-stimulated J774 cells, Table 3 (Continued) key. On the procedure:
This assay was used to determine the anti-inflammatory effect of tetracycline compounds of the invention by determining the modulation of nitric oxide, interleukin-10 and interleukin-12 synthesis in the J774 cell line, according to a literature procedure (D'Agostino P. et al. Int Immunopharmacol. 2001 September; 1(9-10):1765-76). J774.2 cells were stimulated with 100 ng/ml lipopolysaccharide (LPS). Nitrite, the spontaneous degradation product of nitric oxide, is measured in cell supernatants using the Greiss Reaction. In the experimental conditions, test tetracycline compounds were added 30 minutes prior to LPS stimulation. Cytotoxicity is determined using Resazurin metabolism. On the first day, a 96-well black-walled plate (except for the bottom row) was seeded with 100 μl of a 2.5×10^6 cells/ml suspension and incubated for two hours at 37° C. and 5% CO2. Towards the end of the two hour incubation period, test compounds were prepared at a concentration of 139 μg/ml, in 1.25% DMSO, a 2.5× concentration ready for addition to the cells.
At the end of the two hour incubation period, 80 μl of each of the test tetracycline compound solutions were added to the cell plates to make a final concentration of 56 μg/ml. Next, 80 μl of 1.25% DMSO in media was added to the negative control wells. Then, 80 μl of media was added to the positive control wells. The plate was then incubated for half an hour at 37° C., 5% CO2. A 10× working solution of LPS was prepared at a concentration of 1 μg/ml LPS.
After the half hour incubation period, 20 μl of LPS (1 μg/ml) in media was added to half of the test and control wells to give a final concentration of 100 ng/ml. Next, 20 μl of media was added to other half of the wells. The plate was then incubated for 24 hours at 37° C., 5% CO2. 100 μl of the supernatant from each well was collected for nitrite testing. 60 μl of the supernatant was collected for cytokine testing using an enzyme linked immunosorbant assay. The plates are then stored after being covered with sealer and frozen.
For the testing toxicity, the remaining media was blotted from the cell plates and 50 μl of Resazurin was added to each well (0.042 mg/ml in PBS w/Ca and Mg). The plate were then incubated for 45 mins, 37° C., 5% CO2, and for 30 minutes at room temperature. The plate was then read for Resazurin fluorescence.
50 μl/well of sulfanilamide solution (1% sulfanilamide in 5% […]) was added to supernatant plates. The plates were then incubated for 10 minutes at room temperature in the dark. Next, 50 μl/well NED solution (0.1% N-1-naphthylethylene diamine dihydrochloride in water) was added and incubated for 10 minutes at room temperature in the dark. Plates are then read for nitrite measurement and compared to a standard curve generated from the control wells.

Setting [5] is: MIC class, Table 3, read-out: Antibiotic Activity Gram +.
[6] abbreviates: MIC class, Table 3, read-out: Antibiotic Activity Gram −.
The mark [7] stands for this setting: gram positive bacteria, read-out: Antibiotic Activity Gram + (MIC).
Setting [8] is: gram negative bacteria, read-out: Antibiotic Activity Gram − (MIC).

For `CCC(=O)O[C@H]1[C@H]2C(=C(O)[C@]3(O)C(=O)C(C(N)=O)=C(O)[C@@H](N(C)C)[C@H]13)C(=O)c1c(ccc(NC(=O)Nc3cccc4ccccc34)c1O)[C@@H]2C` [Q], the results for the MIC in experiment [1] (setting [5]) and in experiment [2] (setting [6]) were less than 4 µg/mL and greater than 4 µg/mL, respectively. For the same molecule, the “neuroprotection (cell viability by LDH release)” value (from here on “neuroprotection”) in experiment [3] was “good neuroprotection”. In addition, in experiment [4], the Nitrite result was “○”.

Take `CN(C)c1cc(-c2ccc(CN3CCCC3)o2)c(O)c2c1C[C@H]1C[C@H]3[C@H](N(C)C)C(O)=C(C(N)=O)C(=O)[C@@]3(O)C(O)=C1C2=O` [LJ]: the MIC in experiment [1] (setting [5]) and in experiment [2] (setting [6]) was greater than 4 µg/mL throughout. In experiment [4], the Nitrite result was “○”.

As to `CC(=O)Nc1cccc(-c2cc(N(C)C)c3c(c2O)C(=O)C2=C(O)[C@]4(O)C(=O)C(C(N)=O)=C(O)[C@@H](N(C)C)[C@@H]4C[C@@H]2C3)c1` [G], the MIC in experiment [1] (setting [5]) and in experiment [2] (setting [6]) was greater than 4 µg/mL throughout. For the same molecule, the “neuroprotection” value in experiment [3] was “good neuroprotection”. In addition, the Nitrite entry in experiment [4] is “○”.

Turning to `CN(C)c1cc(NC(=O)Nc2ccc([N+](=O)[O-])cc2)c(O)c2c1C[C@H]1C[C@H]3[C@@H](N(C)C)C(O)=C(C(N)=O)C(=O)[C@@]3(O)C(O)=C1C2=O` [CD], the MIC is less than 4 µg/mL in experiment [1] (setting [5]) and greater than 4 µg/mL in experiment [2] (setting [6]). Moreover, in experiment [3], the “neuroprotection” value is “good neuroprotection”.

As to `CN(C)C1C(O)=C(C(N)=O)C(=O)[C@@]2(O)C(O)=C3C(=O)c4c(O)ccc(CNCC(C)(C)C)c4C[C@H]3C[C@@H]12` (stereo partly drawn) [JD], the MIC in experiment [1] (setting [5]) and in experiment [2] (setting [6]) was less than 4 µg/mL in each case. The “neuroprotection” value in experiment [3] is “good neuroprotection”.

With `CCCCOc1ccc(N(C)C)c2c1C(=O)C1=C(O)[C@]3(O)C(=O)C(C(N)=O)=C(O)[C@@H](N(C)C)[C@@H]3C[C@@H]1C2` [OM], the MIC in experiment [1] (setting [5]) and in experiment [2] (setting [6]) was greater than 4 µg/mL each time. For the same molecule, the “neuroprotection” value in experiment [3] is recorded as “good neuroprotection”. In addition, in experiment [4], the Nitrite result was “○”.

`C[C@H]1c2ccc(CN3CCC(C(F)(F)F)CC3)c(O)c2C(=O)C2=C(O)[C@]3(O)C(=O)C(C(N)=O)=C(O)[C@@H](N(C)C)[C@@H]3[C@@H](O)[C@@H]21`: the MIC in experiment [1] (setting [7]) and in experiment [2] (setting [8]) was less than 4 µg/mL in each case. Further, the “Nitrite (inhibition of nitric oxide synthesis)” value in experiment [4] came out at 3.

Regarding `CN(C)c1cc(NC(=O)Nc2cccc(F)c2)c(O)c2c1C[C@H]1C[C@H]3[C@@H](N(C)C)C(O)=C(C(N)=O)C(=O)[C@@]3(O)C(O)=C1C2=O` [H], the MIC is less than 4 µg/mL in experiment [1] (setting [5]) and greater than 4 µg/mL in experiment [2] (setting [6]). Besides, in experiment [3], the “neuroprotection” value is listed as “good neuroprotection”.

As to `CN(C)[C@@H]1C(O)=C(C(N)=O)C(=O)[C@@]2(O)C(O)=C3C(=O)c4c(O)ccc(/C=C/C(=O)NC(C)(C)C)c4C[C@H]3C[C@@H]12` [CW], the MIC in experiment [1] (setting [5]) is less than 4 µg/mL; in experiment [2] (setting [6]), greater than 4 µg/mL. For the same molecule, the “neuroprotection” value in experiment [3] is “good neuroprotection”.

Turning to `CN(C)[C@@H]1C(O)=C(C(N)=O)C(=O)[C@@]2(O)C(O)=C3C(=O)c4c(O)c(C(C)(C)C)cc(CN)c4C[C@H]3C[C@@H]12` [IE], the MIC in experiment [1] (setting [5]) and in experiment [2] (setting [6]) was greater than 4 µg/mL throughout. Moreover, in experiment [3], the “neuroprotection” value is “good neuroprotection”.

For the molecule `CN(C)[C@@H]1C(O)=C(C(N)=O)C(=O)[C@@]2(O)C(O)=C3C(=O)c4c(O)ccc(-c5ccccn5)c4C[C@H]3C[C@@H]12`, the MIC in experiment [1] (setting [7]) and in experiment [2] (setting [8]) was less than 4 µg/mL each time. Moreover, the “Nitrite (inhibition of nitric oxide synthesis)” value in experiment [4] is 3.

The record behind these values is patent publication US20150141381A1, “TETRACYCLINE COMPOUNDS HAVING TARGET THERAPEUTIC ACTIVITIES” (Paratek Pharmaceuticals, Inc., priority 2001, published 2015).
